What was measured:
[1] = parameters: method as in Wang S. et al., 2018; conditions: ref Wang S. et al., 2018, cited from earlier work
α4β2nAChR = target: T1, α4β2nAChR (Mus musculus, UniProt O70174+Q9ERK7); experiment: Blocking experiment with cytisine pre-injection, brain uptake; assay type: in vivo; conditions: cytisine 1 mg/kg pre-injected 5 min before tracer; CD-1 mice brain, 60 min after injection
T1 construct: from tissue; host or cells: brain of living CD-1 mice
Procedure: (§1) To further determine the specific binding of [^18F]YLF-DW to α7nAChR over other similar receptors, blocking experiments were carried out by pre-subcutaneous injection of blocking agents. α4β2nAChR, a heteromeric nAChR subtype widely expressed and 5-HT3, a receptor sharing high sequence homology with α7nAChR, were the most likely receptors to cross binding with α7nAChR ligands. We used the brain tissues of CD-1 mice to do the blocking experiment. Cytisine (1 mg/kg, a selective partial agonist of α4β2nAChR) and ondansetron (2 mg/kg, a selective antagonist of 5-HT3) were pre-injected 5 and 10 min prior to the intravenous injection of [^18F]YLF-DW, respectively. The CD-1 mice were sacrificed at 60 min after the [^18F]YLF-DW injection, and the brain tissues were harvested.

5-HT3 = target: T2, 5-HT3 (Mus musculus, UniProt P23979); experiment: Blocking experiment with ondansetron pre-injection, brain uptake; assay type: in vivo; conditions: ondansetron 2 mg/kg pre-injected 10 min before tracer; CD-1 mice brain, 60 min after injection
T2 construct: from tissue; host or cells: brain of living CD-1 mice
T2 sequence (P23979 24-489): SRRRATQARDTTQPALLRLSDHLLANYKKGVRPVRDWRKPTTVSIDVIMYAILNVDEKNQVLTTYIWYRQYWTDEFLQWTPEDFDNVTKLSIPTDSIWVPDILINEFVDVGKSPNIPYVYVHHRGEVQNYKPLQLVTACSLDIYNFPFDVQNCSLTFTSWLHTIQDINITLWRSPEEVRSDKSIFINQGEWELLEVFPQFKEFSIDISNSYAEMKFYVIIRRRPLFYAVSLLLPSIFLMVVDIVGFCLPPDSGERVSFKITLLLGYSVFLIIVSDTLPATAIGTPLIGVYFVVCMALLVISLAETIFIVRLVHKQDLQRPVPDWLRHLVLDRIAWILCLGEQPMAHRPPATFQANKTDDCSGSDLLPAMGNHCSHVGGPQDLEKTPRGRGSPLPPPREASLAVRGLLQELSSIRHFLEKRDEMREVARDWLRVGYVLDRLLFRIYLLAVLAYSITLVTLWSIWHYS
Procedure: as §1

[2] = target: T3, α7nAChR in atherosclerotic plaques (Mus musculus, UniProt P49582); experiment: Micro-PET/CT imaging of carotid atherosclerotic plaques; assay type: in vivo, ApoE-/-mice and normal mice
T3 construct: superimposed on the high uptake region in carotid arteries of ApoE-/-mice; from tissue; host or cells: carotid arteries / atherosclerotic plaques of living ApoE-/- mice and normal mice
Excerpt: ApoE-/-mice (n = 6, weight 25–33 g) and normal mice (n = 6, weight 25–33g) were purchased from Qingzilan Technology Co., Ltd (Nanjing, China). After 1 week of feeding with common feed, the selected ApoE-/-mice were fed with western diet, containing 21% fat and 0.15% cholesterol content, with a high-fat/high-cholesterol content for 9–10 weeks and subjected to micro-PET/CT imaging. The tissues were used for red staining and immunohistochemistry experiments. The normal mice served as controls for micro-PET/CT imaging and their tissues for immunohistochemistry. All mice were kept in a temperature-controlled environment with a 12 h light/dark cycle with free access to food and water. Animal care and experimental procedures were conducted in compliance with the Helsinki Declaration and approved by Fuwai hospital animal care committee.
When the animal models were 10 and 11 weeks old, the micro-PET/CT imaging were conducted. An Inveon small animal PET/CT scanner (Siemens,Germany) was used to perform the scans. A total volume of 5.56 MBq (150 μCi) of [^18F]YLF-DW was injected into six ApoE-/-mice and six normal mice by the tail veins, and the animal models were anesthetized with 2% isoflurane through inhalation. We performed PET/CT dynamic scanning. After screening, the acquisition was performed at 1 h after tail vein injections. The micro-PET/CT was initially performed with the following parameters: energy peak, 511 keV; window width, 3.5 E0 SUV-bw; resolution, 0.775 mm/pixel; and matrix, 128 × 128. Each mouse required a 15-min acquisition and the computed tomography (CT) was performed after PET scanning in the same bed position using the following parameters: frame resolution, 256 × 512; tube voltage, 80 kVp; current, 0.5 mA; and exposure time, 500 ms/frame.
The images were reconstructed by two-dimensional-ordered subsets expectation maximization. The three-dimensional regions of interest (ROIs) were superimposed on the high uptake region in carotid arteries of ApoE-/-mice. The tissue density was presumed as 1 g/ml, and % ID/g was calculated based on the dose injected into the mice.

α7nAChR = target: α7nAChR; parameters: method as in Wang S. et al., 2018; conditions: previous experiment, ref Wang S. et al., 2018; cited from earlier work

T3 sequence (P49582 23-502): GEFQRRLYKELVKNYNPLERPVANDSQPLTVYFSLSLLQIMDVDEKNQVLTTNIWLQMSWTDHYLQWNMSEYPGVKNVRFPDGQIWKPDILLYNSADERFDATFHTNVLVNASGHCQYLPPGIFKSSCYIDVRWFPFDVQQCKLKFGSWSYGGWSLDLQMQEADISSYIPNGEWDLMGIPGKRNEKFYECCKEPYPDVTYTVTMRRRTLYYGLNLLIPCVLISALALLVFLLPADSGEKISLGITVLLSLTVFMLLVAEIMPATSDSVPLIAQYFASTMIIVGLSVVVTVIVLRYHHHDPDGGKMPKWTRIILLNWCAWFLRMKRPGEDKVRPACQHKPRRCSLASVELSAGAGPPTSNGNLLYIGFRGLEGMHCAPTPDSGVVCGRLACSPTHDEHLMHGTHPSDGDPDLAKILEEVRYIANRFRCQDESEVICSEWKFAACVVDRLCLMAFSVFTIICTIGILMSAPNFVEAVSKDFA
T1 sequence (O70174 31-629): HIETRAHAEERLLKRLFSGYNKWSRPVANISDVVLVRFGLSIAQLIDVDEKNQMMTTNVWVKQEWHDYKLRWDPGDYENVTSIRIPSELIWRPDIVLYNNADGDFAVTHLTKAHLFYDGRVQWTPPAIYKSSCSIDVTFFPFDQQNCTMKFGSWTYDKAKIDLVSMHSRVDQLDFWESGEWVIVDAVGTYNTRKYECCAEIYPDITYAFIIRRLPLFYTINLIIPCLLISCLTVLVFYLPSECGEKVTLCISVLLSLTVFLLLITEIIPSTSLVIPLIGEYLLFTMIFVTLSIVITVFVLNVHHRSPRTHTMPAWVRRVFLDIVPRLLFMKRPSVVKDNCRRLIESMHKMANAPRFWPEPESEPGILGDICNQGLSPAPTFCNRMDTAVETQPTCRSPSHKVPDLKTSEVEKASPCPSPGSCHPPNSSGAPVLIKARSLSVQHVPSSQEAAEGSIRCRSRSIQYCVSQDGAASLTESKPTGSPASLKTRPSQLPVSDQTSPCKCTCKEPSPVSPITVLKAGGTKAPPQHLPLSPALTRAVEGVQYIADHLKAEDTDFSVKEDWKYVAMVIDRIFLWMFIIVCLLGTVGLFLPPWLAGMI
T1 sequence (Q9ERK7 26-501): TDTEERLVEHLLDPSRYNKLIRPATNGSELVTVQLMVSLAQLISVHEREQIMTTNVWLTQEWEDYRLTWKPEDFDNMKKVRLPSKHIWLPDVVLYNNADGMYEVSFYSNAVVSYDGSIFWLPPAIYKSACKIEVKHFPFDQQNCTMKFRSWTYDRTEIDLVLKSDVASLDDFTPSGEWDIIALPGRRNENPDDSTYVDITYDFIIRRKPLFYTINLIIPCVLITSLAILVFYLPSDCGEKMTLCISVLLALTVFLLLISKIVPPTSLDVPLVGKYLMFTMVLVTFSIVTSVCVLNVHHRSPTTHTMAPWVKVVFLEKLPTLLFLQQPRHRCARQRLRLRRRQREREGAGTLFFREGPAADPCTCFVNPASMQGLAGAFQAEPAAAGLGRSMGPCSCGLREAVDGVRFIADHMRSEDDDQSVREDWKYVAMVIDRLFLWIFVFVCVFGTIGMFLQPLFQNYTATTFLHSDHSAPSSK

Which results are given for `O=C1c2cc(N3CCN4CCC3CC4)ccc2-c2cccc([18F])c21` [[^18F]YLF-DW]?
initial brain uptake ([1]; 15 min post-injection, Kunming mouse): 11.60 ± 0.14 %ID/g; brain/blood value ([1]; 30 min post-injection, Kunming mouse): 9.57; clearance from brain ([1]; Kunming mouse brains): fast clearance; difference in radioligand uptake, blocked group vs control group (α4β2nAChR): no significant difference; difference in radioligand uptake, blocked group vs control group (5-HT3): no significant difference; carotid artery plaque imaging signal ([2]; ApoE-/-mouse, 5.56 MBq i.v., acquisition 1 h after injection): obvious in the carotid artery; early detection of carotid plaques compared with traditional imaging agent ([2]; ApoE-/-mouse, comparison with [^18F]FDG): better than [^18F]FDG; carotid artery imaging signal ([2]; normal control mice, 5.56 MBq i.v., acquisition 1 h after injection): no signal was observed; Ki (α7nAChR): 2.98 ± 1.41 nM
